Structures are written as SMILES.

The nature of the data set: gradient 5% acetonitrile 3 min, to 50% in 2 min, to 85% in 15 min, held 3 min, 100 µL/min. The settings on record: column: Zorbax Extend-C18 2.1 x 50 mm; eluents: water / acetonitrile, 0.1% formic acid. An outline of the steps: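 Each retention time is based on an adduct peak selected computationally and verified by manual inspection. Measurements used HPLC–quadrupole time-of-flight mass spectrometry in positive and negative ionization mode on mixtures of ~100 pure standards. Chromatography ran on a Zorbax Extend-C18 column (2.1 × 50 mm, 1.8 μm) at 100 μL/min with water and acetonitrile, each containing 0.1% formic acid, and dead and dwell volumes of 40 μL and 900 μL.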
Take `CC(C)(C)c1ccc(S(=O)(=O)N2CCC(C(=O)NCc3csc(-c4ccccc4)n3)CC2)cc1`: the RP-LC retention time was found to be 1130 s.

As to `COc1ccccc1-c1ccc(N2CCN(C(=O)c3ccccc3Cl)CC2)nn1`, the RP-LC retention time was 626 s.

Compound `Cc1cc(C)cc(NS(=O)(=O)c2cc(-c3nc(C)cs3)cs2)c1` gave an RP-LC retention time of 1010 s.

For `COC(=O)c1ccccc1Nc1c(-c2cccc(Br)c2)nc2cnccn12`, the RP-LC retention time turned out to be 1090 s.

In turn, `Cc1cccc(N2CCN(c3cc(C(=O)O)c4cc(NC(=O)CC(C)C)ccc4n3)CC2)c1` yielded an RP-LC retention time of 710 s.

`CC1CCN(S(=O)(=O)c2ccc(-c3nnc(C(=O)NCc4ccc5c(c4)OCO5)o3)cc2)CC1`: the RP-LC retention time was determined as 1010 s.

With `CC(C)c1ccc(NC(=O)Cn2cnc3c2c(=O)n(C)c(=O)n3C)cc1`, the RP-LC retention time is 816 s.

`CC(C)OCCCNC(=O)C1CCCN(c2ccc(=O)n(-c3cccc(Cl)c3)n2)C1` (stereo not drawn) returned an RP-LC retention time of 789 s.

For `Cc1ccc(C)c(N2CCN(C(=O)Cc3csc4nc(-c5ccc(C)c(C)c5)cn34)CC2)c1`, the RP-LC retention time came out at 1120 s.

For `Cc1ccccc1Cn1nc2ccc(S(=O)(=O)N3CCCCCC3)cn2c1=O`, the RP-LC retention time amounted to 1020 s.

With `O=C(NCc1ccc(F)cc1F)C1CCN(C(=O)c2ncn3c2COC(c2ccc(F)cc2)C3)CC1` (stereo not drawn), the RP-LC retention time stood at 776 s.

The compound `CN1CCn2cc(S(=O)(=O)Nc3cccc(C#N)c3)cc2C1=O` came in with an RP-LC retention time of 662 s.

`O=S(=O)(Cc1ccc(-c2nc(-c3ccccc3)no2)o1)c1ccccc1` gave an RP-LC retention time of 1010 s.

`CC(C)NC(=O)Cn1cc(-c2ccccc2)c2ncnc(N3CCOCC3)c21` yielded an RP-LC retention time of 659 s.

Take `COc1ccc(CNC(=O)c2cc3sccc3n2Cc2ccc(F)cc2)cc1`: the RP-LC retention time came out at 1080 s.

Turning to `CS(=O)(=O)Nc1cccc(NC(=O)CCc2c[nH]c3ccccc23)c1`, the RP-LC retention time was found to be 714 s.

In turn, `CCn1cc(CN2CCC(C(=O)NCc3ccc(N(C)C)cc3)CC2)c2cc(OC)ccc21` had an RP-LC retention time of 603 s.

Take `Fc1ccc(-n2cc(-c3noc(-c4ccccc4)n3)nn2)cc1`: the RP-LC retention time came to 1040 s.

As to `Cc1ccc(Nc2ncccc2S(N)(=O)=O)cc1Cl`, the RP-LC retention time is 924 s.

`COC(=O)c1ccccc1NC(=O)CCCn1c(=O)c2cccn2c2ccc(Br)cc21` had an RP-LC retention time of 1120 s.

`Fc1ccc(Cc2nc(-c3ccc4nncn4c3)no2)cc1` displayed an RP-LC retention time of 770 s.

The compound `COCCCNC(=O)CCCn1c2ccccc2c2cnn(C)c(=O)c21` had an RP-LC retention time of 688 s.

`CC(C(=O)N1CCN(c2ccccn2)CC1)n1c2ccccc2c2cnn(C)c(=O)c21` (stereo not drawn) yielded an RP-LC retention time of 627 s.

Compound `COc1ccc(-c2c(C)noc2NC(C)=O)cc1S(=O)(=O)N1CCCc2ccccc21` came in with an RP-LC retention time of 856 s.

Compound `O=S1(=O)C[C@H](N2CCN(c3ccccn3)CC2)[C@@H](S(=O)(=O)c2ccccc2)C1` returned an RP-LC retention time of 598 s.

`CN1C(=O)c2cc(C(=O)NCCCc3ccccc3)nn2CC1(C)C(=O)NCc1ccccc1` (stereo not drawn) showed an RP-LC retention time of 814 s.

Compound `COc1ccc(NC(=O)Cn2cnc3c(sc4nc(-c5ccccc5)ccc43)c2=O)cc1Cl` had an RP-LC retention time of 1030 s.

Take `COc1ccc(-n2c(=O)c(C(=O)NC3CCCCCC3)c(O)c3cccnc32)cc1`: the RP-LC retention time turned out to be 1380 s.

Consider `CC(C)(NC(=O)C1CCC1)c1nc2c(c(C(N)=O)n1)OCCO2`, for which the RP-LC retention time is 586 s.

Compound `CC(C)CNC(=O)C1CCN(C(=O)Nc2ccc(NC(=O)NC3CCCC3)cc2)CC1` registered an RP-LC retention time of 728 s.

As for `O=C(COc1ccc([N+](=O)[O-])cc1Cl)N1CCOCC1`, the RP-LC retention time amounted to 846 s.

The compound `Cc1nnc(N2CCCC(C(=O)NCc3cccc(F)c3)C2)c2nn(-c3ccc(Cl)cc3)c(C)c12` (stereo not drawn) yielded an RP-LC retention time of 757 s.

Turning to `CCCCNC(=O)CCc1c(C)n(C)c2nc(-c3ccccc3)nn2c1=O`, the RP-LC retention time came to 706 s.

As for `CCOc1ccccc1NC(=O)C1CCCN(S(=O)(=O)c2cc(-c3noc(C)n3)cs2)C1` (stereo not drawn), the RP-LC retention time worked out at 1060 s.

On to `Cc1ccc(S(=O)(=O)Nc2ccc3c(c2)CCC(=O)N3CC(C)C)cc1`, for which the RP-LC retention time stood at 887 s.

`COc1cccc(NC(=O)NC2CCN(c3ccc(C)c(C)c3)C2=O)c1` (stereo not drawn) came in with an RP-LC retention time of 854 s.

In the case of `Cc1ccc(-n2c(N3CCCC(C(=O)NCc4ccc(F)cc4F)C3)nc3ccsc3c2=O)cc1` (stereo not drawn), the RP-LC retention time stood at 918 s.

Compound `CCOc1ccc(NS(=O)(=O)c2ccccc2-c2nc(-c3ccc(F)cc3)no2)cc1` registered an RP-LC retention time of 1200 s.

As to `Cc1ccccc1-c1noc(CCc2nnc3ccc(N4CCOCC4)nn23)n1`, the RP-LC retention time was found to be 782 s.

In turn, `COC(=O)c1cnc2nc(C)ccc2c1Nc1cccc(Cl)c1` registered an RP-LC retention time of 705 s.

The compound `Cc1cccc(N2CCN(c3ccc4cc(S(=O)(=O)N5CCCCC5)ccc4n3)CC2C)c1` (stereo not drawn) had an RP-LC retention time of 1110 s.

With `Cc1ccc(S(=O)(=O)c2cnc(N3CCN(c4cccc(Cl)c4)CC3)nc2N)cc1C`, the RP-LC retention time stood at 1260 s.

`O=C(NCCc1cccs1)c1nc(Nc2ccc(F)cc2)c2ccccc2n1`: the RP-LC retention time was determined as 825 s.

Compound `O=C(NCCc1ccccc1)Nc1ccc(-c2nc(-c3ccccc3)co2)cc1` registered an RP-LC retention time of 1080 s.

Take `Cc1cccc(OCc2nc(-c3cccc(-c4ccn[nH]4)c3)no2)c1`: the RP-LC retention time is 999 s.

Compound `COc1cccc(CN2C(=O)CSc3c(c4ccccc4n3C)C2C(=O)NCCCOC(C)C)c1` (stereo not drawn) yielded an RP-LC retention time of 955 s.

Regarding `Cc1nn(CC(=O)NCCCN2CCc3ccccc3C2)c(=O)c2noc(C)c12`, the RP-LC retention time turned out to be 597 s.

As for `CCc1nc(-c2cc(S(=O)(=O)N3CCC(C(=O)N4CCCCCC4)CC3)c(C)s2)no1`, the RP-LC retention time came out at 1030 s.

`O=C(NC1CCCCCCC1)C1CCN(S(=O)(=O)c2cc(-c3noc(C4CC4)n3)cs2)CC1` displayed an RP-LC retention time of 1100 s.

The compound `CCN(CC)S(=O)(=O)c1ccc2c(c1)CC(C(=O)NCCC(C)C)N2C(C)=O` (stereo not drawn) came in with an RP-LC retention time of 848 s.

The compound `CC(=O)N[C@@H]1CN(C(=O)c2ccc3ncccc3c2)C[C@H]1CO` had an RP-LC retention time of 536 s.

`O=C(Nc1cc(F)ccc1F)N1CCCC(Cn2c(C3CC3)nc3cccnc32)C1` (stereo not drawn) came in with an RP-LC retention time of 689 s.

For the compound `Cn1c(C(=O)NCCCN2CCC(Cc3ccccc3)CC2)cc2c(=O)n(C)c3ccccc3c21`, the RP-LC retention time stood at 707 s.

Consider `O=C(Cc1cccs1)N1CCc2nn(CC3CC3)c(=O)n2CC1`, for which the RP-LC retention time amounted to 676 s.

Turning to `COc1ccc(N2CCN(c3cc(SCC(=O)Nc4cc(F)ccc4C)ncn3)CC2)cc1`, the RP-LC retention time turned out to be 1040 s.

In the case of `COc1ccc(-c2nc(-c3cn(-c4cccc(Cl)c4)nn3)no2)cc1`, the RP-LC retention time was 1100 s.

For `Cc1[nH]c(C)c(S(=O)(=O)N2CCC(C(=O)NC3CC3)CC2)c1C(=O)N1CCCCC1`, the RP-LC retention time came out at 630 s.

The compound `CCCNC(=O)c1cn(-c2ccc(-c3nc(CC)no3)cn2)cn1` gave an RP-LC retention time of 777 s.

With `COCC(=O)N1CCC(N2C[C@H](O)C[C@H]2C(=O)NC2CCCCC2)CC1`, the RP-LC retention time was 573 s.

`COc1ccc(-n2ccn(CC(=O)Nc3ccc(OC)c(Cl)c3)c2=O)cc1` registered an RP-LC retention time of 734 s.

The compound `O=c1n(CC2CC2)nc2n1CCC(NS(=O)(=O)c1ccccc1)CC2` (stereo not drawn) had an RP-LC retention time of 706 s.

As for `O=c1c2c(nc(SCc3ccccn3)n1CCc1ccccc1)CCS2`, the RP-LC retention time amounted to 657 s.

For the compound `Cc1cc(C(=O)NCCCN2CCOCC2)c2cc(Br)ccc2n1`, the RP-LC retention time is 583 s.

The compound `CCN(CC)S(=O)(=O)c1ccc2c(c1)cc(C(=O)N1CCN(c3ncccn3)CC1)n2C` gave an RP-LC retention time of 880 s.

Compound `Cc1noc2ncnc(N3CCCC(C(=O)N4CCCc5ccccc54)C3)c12` (stereo not drawn) came in with an RP-LC retention time of 878 s.

As for `Cc1noc(C)c1-c1ccc(S(=O)(=O)NC2CCCC2)cc1`, the RP-LC retention time came to 911 s.

As to `CN1CCN(C(=O)C2CCN(S(=O)(=O)c3ccc4c(c3)sc(=O)n4C)CC2)CC1`, the RP-LC retention time stood at 596 s.

As for `COCCOCc1nc(C2CCCN2S(=O)(=O)c2cc(F)ccc2F)no1` (stereo not drawn), the RP-LC retention time turned out to be 830 s.

For the compound `COc1ccc(C2c3cc4c(c(OC)c3CC3OCC(=O)C32)OCO4)cc1OC` (stereo not drawn), the RP-LC retention time was 609 s.

Compound `O=C(NC1CCN(c2cc(-c3ccccc3)[nH]n2)C1)c1cccs1` (stereo not drawn) registered an RP-LC retention time of 630 s.

In turn, `CCOC(=O)c1noc2ncnc(N3CCN(c4ccc(OC)cc4)CC3)c12` yielded an RP-LC retention time of 955 s.

With `Cc1noc(-c2nc(-c3cccc(Cl)c3)no2)n1`, the RP-LC retention time was determined as 1070 s.

Turning to `CCN1CCCCc2cc(C(=O)NC(C)COC)sc21` (stereo not drawn), the RP-LC retention time was 905 s.

The compound `Cc1nc(NC(=O)Cc2c(C)[nH]c(=O)[nH]c2=O)sc1C(=O)Nc1ccccc1` had an RP-LC retention time of 617 s.

In turn, `CCN1C(=O)c2cc(S(=O)(=O)NCc3ccccc3F)ccc2Oc2cccnc21` displayed an RP-LC retention time of 1010 s.

`CC(C)c1cc(C(=O)Nc2cccc(Cl)c2)nc2ccnn12` gave an RP-LC retention time of 1230 s.

On to `C=CCNC(=O)CN1C(=O)C2CCCCN2c2ccc(S(=O)(=O)N(C)C)cc21` (stereo not drawn), for which the RP-LC retention time was found to be 774 s.

`Cc1noc(C)c1-c1ccc(S(=O)(=O)N2CCCCCC2)cc1` gave an RP-LC retention time of 1020 s.

These data come from the METLIN SMRT retention time set (Domingo-Almenara et al. 2019).
